Test results as given in patent US20230131966A1, “FUNGICIDAL AMIDES” (FMC Corporation, priority 2020, published 2023).

What was measured:
Assay type in all cases: in vivo
Phytophthora infestans = test: whole plant or invertebrate; conditions: tomato seedlings, 100 = 100% disease control, 0 = no control; for Test F disease control rating: 250 ppm
Botrytis cinerea = test: Test E: tomato Botrytis control on tomato seedlings; conditions: 250 ppm, 100 = 100% disease control, 0 = no control
Plasmopara viticola = test: Test D: grape downy mildew control on grape seedlings; conditions: 250 ppm, 100 = 100% disease control, 0 = no control
[1] = system: Erysiphe graminis f. sp. tritici; test: Test G: wheat powdery mildew control on wheat seedlings; conditions: 250 ppm, 100 = 100% disease control, 0 = no control
Phakopsora pachyrhizi = test: Test A: Asian soybean rust control on soybean seedlings; conditions: soybean seedlings, 100 = 100% disease control, 0 = no control
Zymoseptoria tritici = test: Test C: wheat leaf blotch control on wheat seedlings; conditions: 250 ppm, wheat seedlings, 100 = 100% disease control, 0 = no control
[2] = system: Puccinia recondita f. sp. tritici; test: Test B: wheat leaf rust control on wheat seedlings; conditions: wheat seedlings, 100 = 100% disease control, 0 = no control

| Structure (SMILES) | Test F disease control rating (Phytophthora infestans) [%] | Test E disease control rating (Botrytis cinerea) [%] | Test G disease control rating [1] [%] | Test A disease control rating (Phakopsora pachyrhizi; 250 ppm) [%] | Test C disease control rating (Zymoseptoria tritici) [%] | Test B disease control rating ([2]; 250 ppm) [%] | also measured |
| --- | --- | --- | --- | --- | --- | --- | --- |
| COc1ccnc(C(=O)N[C@@H](C)C(=O)OC(C)c2ccc(C3CCCCC3)cc2)c1OC(C)=O (single isomer, unassigned) [Compound 86] | 0 | 0 | 0 | 73 | 65 |  | Test D disease control rating (Plasmopara viticola): 24% |
| COc1ccnc(C(=O)N[C@@H](C)C(=O)OC(C)c2ccccc2Oc2ccccc2)c1OC(C)=O (single isomer, unassigned) [Compound 107] | 0 | 0 | 0 | 100 | 87 | 98 |  |
| COc1ccnc(C(=O)N[C@@H](C)C(=O)OC(C)c2cccc3ccccc23)c1OC(C)=O (single isomer, unassigned) [Compound 115] | 0 | 0 | 0 | 89 | 86 | 55 |  |
| CCOC(=O)c1cnn(-c2ccc(C(C)OC(=O)C(C)NC(=O)c3nccc(OC)c3O)cc2)c1 (mixture of isomers) [Compound 50] |  |  |  |  | 54 | 68 |  |
| COc1ccnc(C(=O)N[C@@H](C)C(=O)OC(C)c2ccccc2Oc2ccccc2)c1OC(C)=O (single isomer, unassigned) [Compound 108] | 0 | 0 | 0 | 43 | 75 | 32 |  |
| COc1ccnc(C(=O)NC(C)C(=O)OC(C)c2ccccc2Oc2ccc(F)cc2)c1O (mixture of isomers) [Compound 55] | 0 | 0 | 13 | 100 |  | 98 | Test D disease control rating (Plasmopara viticola): 52% |
| COc1ccnc(C(=O)N[C@@H](C)C(=O)OC(C)c2ccc(F)cc2Cc2ccc(F)cc2)c1O (single isomer, unassigned) [Compound 54] | 0 | 0 | 0 | 79 |  | 68 | Test D disease control rating (Plasmopara viticola): 55% |
| COc1ccnc(C(=O)N[C@@H](C)C(=O)OC(C)c2ccccc2Oc2ccccc2)c1O (single isomer, unassigned) [Compound 106] | 0 | 16 | 0 | 100 | 90 | 92 |  |
| COc1ccnc(C(=O)NC(C)C(=O)OC(C)c2ccc(C3CC3)cc2)c1OC(C)=O (mixture of isomers) [Compound 71] |  |  |  |  |  |  | Test A disease control rating (Phakopsora pachyrhizi; 50 ppm): 89% |
| COc1ccnc(C(=O)N[C@@H](C)C(=O)OC(C)c2ccc(C3CCCCC3)cc2)c1O (single isomer, unassigned) [Compound 74] |  |  |  |  |  |  | Test B disease control rating ([2]; 50 ppm): 99%; Test A disease control rating (Phakopsora pachyrhizi; 50 ppm): 100% |
| COc1ccnc(C(=O)N[C@@H](C)C(=O)OC(C)c2ccccc2Cc2ccccc2)c1O (single isomer, unassigned) [Compound 111] | 0 | 16 | 0 | 97 | 56 | 9 |  |
| COc1ccnc(C(=O)N[C@@H](C)C(=O)OC(C)c2ccccc2Oc2ccc(F)cc2)c1O (single isomer, unassigned) [Compound 59] | 0 | 0 | 13 | 100 |  | 100 | Test D disease control rating (Plasmopara viticola): 66% |
| COc1ccnc(C(=O)N[C@@H](C)C(=O)OC(C)C2CCCCC2)c1OC(C)=O (single isomer, unassigned) [Compound 88] | 0 | 0 | 0 | 99 | 58 |  | Test D disease control rating (Plasmopara viticola): 43% |
| COc1ccnc(C(=O)N[C@@H](C)C(=O)OC(c2ccc(C3CCCCC3)cc2)C(C)C)c1OC(C)=O (stereo partly shown) [Compound 96] |  |  |  |  |  |  | Test B disease control rating ([2]; 50 ppm): 95%; Test A disease control rating (Phakopsora pachyrhizi; 50 ppm): 94% |
| COc1ccnc(C(=O)N[C@@H](C)C(=O)OC(C)c2ccccc2Oc2ccccc2)c1O (single isomer, unassigned) [Compound 105] | 0 | 0 | 0 | 98 | 67 | 28 |  |
| COc1ccnc(C(=O)NC(C)C(=O)OC(C)c2ccc(F)cc2Cc2ccc(F)cc2)c1O (mixture of isomers) [Compound 42] | 0 | 0 | 0 | 100 |  | 100 | Test D disease control rating (Plasmopara viticola): 66% |
| COc1ccnc(C(=O)NC(C)C(=O)OC(C)c2ccc(C3CCCC3)cc2)c1O (mixture of isomers) [Compound 65] |  |  |  |  |  |  | Test B disease control rating ([2]; 50 ppm): 98%; Test A disease control rating (Phakopsora pachyrhizi; 50 ppm): 100% |
| COc1ccnc(C(=O)NC(C)C(=O)OC(C)C2CCC(C(F)(F)F)CC2)c1O (mixture of isomers) [Compound 179] | 0 | 0 |  | 100 | 99 | 100 | Test D disease control rating (Plasmopara viticola): 82% |
| COc1ccnc(C(=O)N[C@@H](C)C(=O)OC(C)c2ccccc2Cc2ccccc2)c1OC(C)=O (single isomer, unassigned) [Compound 110] | 0 | 0 | 0 | 100 | 92 | 99 |  |
| COc1ccnc(C(=O)NC(C)C(=O)OC(C)C23CC4CC(CC(C4)C2)C3)c1O (racemic) [Compound 44] |  |  |  |  |  |  | pest or weed control at 50 ppm ([2]; Puccinia recondita, 50 ppm, read-out: Test B disease control rating): 55%; pest or weed control at 50 ppm (Phakopsora pachyrhizi; Phakopsora pachyrhizi, 50 ppm, read-out: Test A disease control rating): 75% |
| COc1ccnc(C(=O)N[C@@H](C)C(=O)OC(C)C2CCCCC2)c1O (single isomer, unassigned) [Compound 52] |  |  |  |  |  |  | Test B disease control rating ([2]; 50 ppm): 9%; Test A disease control rating (Phakopsora pachyrhizi; 50 ppm): 32% |
| COc1ccnc(C(=O)N[C@@H](C)C(=O)OC(C)c2ccc(F)cc2Cc2ccc(F)cc2)c1O (single isomer, unassigned) [Compound 41] | 24 | 0 | 0 | 100 |  | 100 | Test D disease control rating (Plasmopara viticola): 70% |
| COc1ccnc(C(=O)N[C@@H](C)C(=O)OC(C)c2ccccc2Cc2ccccc2)c1OC(C)=O (single isomer, unassigned) [Compound 112] | 0 | 0 | 0 | 0 | 83 | 55 |  |
| COc1ccnc(C(=O)N[C@@H](C)C(=O)OC(C)c2ccccc2Cc2ccccc2)c1O (single isomer, unassigned) [Compound 109] | 0 | 98 | 0 | 100 | 85 | 98 |  |
| COc1ccnc(C(=O)N[C@@H](C)C(=O)OC(C)c2ccc(C3CCCCC3)cc2)c1O (single isomer, unassigned) [Compound 73] |  |  |  |  |  |  | Test B disease control rating ([2]; 50 ppm): 41%; Test A disease control rating (Phakopsora pachyrhizi; 50 ppm): 0% |
| COc1ccnc(C(=O)NC(C)C(=O)OC(C)c2ccc3ccccc3c2)c1O (racemic) [Compound 76] |  |  |  |  |  |  | pest or weed control at 250 ppm (Phytophthora infestans; Phytophthora infestans, in Solanum lycopersicum, read-out: Test F disease control rating, 250 ppm): 0%; pest or weed control at 250 ppm ([2]; Puccinia recondita, 250 ppm, read-out: Test B disease control rating): 100%; pest or weed control at 250 ppm (Botrytis cinerea; Botrytis cinerea, read-out: Test E disease control rating): 0%; pest or weed control at 250 ppm (Phakopsora pachyrhizi; Phakopsora pachyrhizi, 250 ppm, read-out: Test A disease control rating): 100%; pest or weed control at 250 ppm (Zymoseptoria tritici; Zymoseptoria tritici, read-out: Test C disease control rating): 99% |
| COc1ccnc(C(=O)N[C@@H](C)C(=O)OC(C)C2CCCCC2)c1O (single isomer, unassigned) [Compound 51] |  |  |  |  |  |  | Test B disease control rating ([2]; 50 ppm): 100%; Test A disease control rating (Phakopsora pachyrhizi; 50 ppm): 100% |
